Assay results as given in patent publication US9132140B2, “Boronic acid derivatives and therapeutic uses thereof” (Rempex Pharmaceuticals, Inc., priority 2013, dated 2015).

Assays:
[1] = system: KP1097 (IMP-1 SHV); type: cell-based, Klebsiella pneumoniae
Description: (§1) Several strains simultaneously expressing both class A and class B carbapenemases, which were constructed using conjugation, were also included in the panel.

[2] = system: KP1014 (Vim-1, TEM, SHV); type: cell-based, Klebsiella pneumoniae
Description: as §1

[3] = system: KPM1097 (NDM, KPC); type: cell-based, Klebsiella pneumoniae
Description: as §1

[4] = system: KP1004 (KPC TEM SHV); type: cell-based, Klebsiella pneumoniae
Description: as §1

[5] = system: KP1084 (KPC-3, SHV-11, TEM-1); type: cell-based, Klebsiella pneumoniae
Description: as §1

[6] = system: KP1065 (VIM-1, SHV-11); type: cell-based, Klebsiella pneumoniae
Description: as §1

[7] = system: EA1019 (SHV-5, VIM-1); type: cell-based, Enterobacter aerogenes
Description: as §1

[8] = system: ECM6711 (pUCP24-VIM-1); assay: microbe, parasite or virus in culture; type: cell-based, E. coli; details: Escherichia coli, read-out: Imipenem MIC Alone
[9] = system: ECL1045 (VIM-1); type: cell-based, Enterobacter cloacae
Description: as §1

[10] = system: ECL1026 (KPC); type: cell-based, Enterobacter cloacae
Description: as §1

[11] = system: ECLM1017 (VIM, KPC); type: cell-based, Enterobacter cloacae
Description: as §1

[12] = system: ECLM1015 (NDM, KPC); type: cell-based, Enterobacter cloacae
Description: as §1

[13] = system: ECLM1013 (NDM, KPC); type: cell-based, Enterobacter cloacae
Description: as §1

[14] = system: ECLM1016 (NDM, KPC); type: cell-based, Enterobacter cloacae
Description: as §1

[15] = system: ECLM1014 (NDM, KPC); type: cell-based, Enterobacter cloacae
Description: as §1

[16] = system: ECL1057 (NDM-1, TEM-1, CTX-M-15); type: cell-based, Enterobacter cloacae
Description: as §1

[17] = system: ECLM1018 (VIM, KPC); type: cell-based, Enterobacter cloacae
Description: as §1

[18] = system: ECL1036 (KPC); type: cell-based, Enterobacter cloacae
Description: as §1

[19] = system: ECLM1019 (VIM, KPC); type: cell-based, Enterobacter cloacae
Description: as §1

[20] = system: ECL1055 (KPC); type: cell-based, Enterobacter cloacae
Description: as §1

[21] = system: ECL1082 (VIM-1); type: cell-based, Enterobacter cloacae
Description: as §1

[22] = system: ECM6703 (pUCP24-NDM-1); assay: microbe, parasite or virus in culture; type: cell-based, E. coli; details: Escherichia coli, read-out: Imipenem MIC Alone
[23] = system: KP1081 (NDM-1, TEM-1, SHV-11, CMY-6, CTX-M-15); type: cell-based, Klebsiella pneumoniae
Description: (§2) The results are present in Table 6.
(§3) The results are present in Table 7.

[24] = system: KP1087 (KPC-2, CTX-M-15, SHV-11, TEM-1); type: cell-based, Klebsiella pneumoniae
Description: as §2, §3

C[C@@H](O)[C@H]1C(=O)N2C(C(=O)O)=C(SCCN=CN)C[C@H]12 [Imipenem, reference compound]
Carbapenem MIC alone [1]: Y (key: X: MIC of less than 1 μg/mL; Y: MIC of 1 μg/mL to 10 μg/mL; Z: MIC of greater than 10 μg/mL)
Carbapenem MIC alone [2]: Z (key: X: MIC of less than 1 μg/mL; Y: MIC of 1 μg/mL to 10 μg/mL; Z: MIC of greater than 10 μg/mL)
Carbapenem MIC alone [3]: Z (key: X: MIC of less than 1 μg/mL; Y: MIC of 1 μg/mL to 10 μg/mL; Z: MIC of greater than 10 μg/mL)
Carbapenem MIC alone [4]: Z (key: X: MIC of less than 1 μg/mL; Y: MIC of 1 μg/mL to 10 μg/mL; Z: MIC of greater than 10 μg/mL)
Carbapenem MIC alone [5]: Z (key: X: MIC of less than 1 μg/mL; Y: MIC of 1 μg/mL to 10 μg/mL; Z: MIC of greater than 10 μg/mL)
Carbapenem MIC alone [6]: Y (key: X: MIC of less than 1 μg/mL; Y: MIC of 1 μg/mL to 10 μg/mL; Z: MIC of greater than 10 μg/mL)
Carbapenem MIC alone [7]: Z (key: X: MIC of less than 1 μg/mL; Y: MIC of 1 μg/mL to 10 μg/mL; Z: MIC of greater than 10 μg/mL)
MIC [8]: > 1 mg/L
Carbapenem MIC alone [9]: Y (key: X: MIC of less than 1 μg/mL; Y: MIC of 1 μg/mL to 10 μg/mL; Z: MIC of greater than 10 μg/mL)
Carbapenem MIC alone [10]: Y (key: X: MIC of less than 1 μg/mL; Y: MIC of 1 μg/mL to 10 μg/mL; Z: MIC of greater than 10 μg/mL)
Carbapenem MIC alone [11]: Z (key: X: MIC of less than 1 μg/mL; Y: MIC of 1 μg/mL to 10 μg/mL; Z: MIC of greater than 10 μg/mL)
Carbapenem MIC alone [12]: Z (key: X: MIC of less than 1 μg/mL; Y: MIC of 1 μg/mL to 10 μg/mL; Z: MIC of greater than 10 μg/mL)
Carbapenem MIC alone [13]: Z (key: X: MIC of less than 1 μg/mL; Y: MIC of 1 μg/mL to 10 μg/mL; Z: MIC of greater than 10 μg/mL)
Carbapenem MIC alone [14]: Z (key: X: MIC of less than 1 μg/mL; Y: MIC of 1 μg/mL to 10 μg/mL; Z: MIC of greater than 10 μg/mL)
Carbapenem MIC alone [15]: Y (key: X: MIC of less than 1 μg/mL; Y: MIC of 1 μg/mL to 10 μg/mL; Z: MIC of greater than 10 μg/mL)
Carbapenem MIC alone [16]: Z (key: X: MIC of less than 1 μg/mL; Y: MIC of 1 μg/mL to 10 μg/mL; Z: MIC of greater than 10 μg/mL)
Carbapenem MIC alone [17]: Z (key: X: MIC of less than 1 μg/mL; Y: MIC of 1 μg/mL to 10 μg/mL; Z: MIC of greater than 10 μg/mL)
Carbapenem MIC alone [18]: Y (key: X: MIC of less than 1 μg/mL; Y: MIC of 1 μg/mL to 10 μg/mL; Z: MIC of greater than 10 μg/mL)
Carbapenem MIC alone [19]: Z (key: X: MIC of less than 1 μg/mL; Y: MIC of 1 μg/mL to 10 μg/mL; Z: MIC of greater than 10 μg/mL)
Carbapenem MIC alone [20]: Y (key: X: MIC of less than 1 μg/mL; Y: MIC of 1 μg/mL to 10 μg/mL; Z: MIC of greater than 10 μg/mL)
Carbapenem MIC alone [21]: Z (key: X: MIC of less than 1 μg/mL; Y: MIC of 1 μg/mL to 10 μg/mL; Z: MIC of greater than 10 μg/mL)
MIC [22]: > 1 mg/L
Carbapenem MIC alone [23]: Z (key: X: MIC of less than 1 μg/mL; Y: MIC of 1 μg/mL to 10 μg/mL; Z: MIC of greater than 10 μg/mL)
Carbapenem MIC alone [24]: Y (key: X: MIC of less than 1 μg/mL; Y: MIC of 1 μg/mL to 10 μg/mL; Z: MIC of greater than 10 μg/mL)
